Data on 28 compounds can be found in patent publication US20250161307A1, “PYRAZOLOPYRIMIDINES AS MODULATORS OF SPERMINE OXIDASE” (Janssen Pharmaceutica NV, priority 2022, published 2025).

For one assay, the target named is SMOX (Homo sapiens (Human), UniProt Q9NWM0). The experiment in a line: Human SMOX assay (HyPerBlu chemiluminescent detection of hydrogen peroxide). It counts as biochemical. The conditions noted are these: 2.5 nM full length hSMOX, spermine substrate, 1 h at room temperature, luminescence read; read-out: SMOx_IC50. How it is done:
(§1) The direct detection of hydrogen peroxide produced from the enzymatic reaction of hSMOX or hPAOX in a biochemical assay format was measured using HyPerBlu (Lumigen, Southfield, MI), a small molecule boronate probe that reacts with hydrogen peroxide to generate a chemiluminescent signal. Inhibition of hSMOX or hPAOX enzyme results in a decrease in luminescence.
Test compounds (75 nL) dissolved in DMSO were added to a 384-well white assay plate (Greiner Bio-one, catalog #784075) using an ECHO Acoustic Dispenser (Labcyte). Each compound was serially diluted 3-fold in DMSO to prepare an 11-point dose response curve (columns 1-22). Column 23 and 24 contained 75 nL of 2 mM chlorhexidine and DMSO, respectively, to represent the 100% inhibited versus the neutral control reactions.
Subsequently, 3 μL/well of the substrate solution prepared in assay buffer (10 mM Hepes, pH 7.4, 150 mM NaCl, 1 mM EGTA, 0.01% Pluronic F-127, 0.05% ovalbumin) was dispensed into the assay plate followed by 3 μL/well of full length hSMOX enzyme with an N-terminal His tag from E. coli prepared in assay buffer to initiate the reactions. After a 1 h incubation at room temperature, 6 μL/well of HyPerBlu was added. After a 30 min incubation, the hydrogen peroxide product generated from the hSMOX reactions was measured using an endpoint luminescence read on the PHERAStar FS/FSX microplate reader (BMG LABTECH).
The final assay conditions included 10 mM Hepes, pH 7.4, 150 mM NaCl, 1 mM EGTA, 0.01% Pluronic F-127, 0.05% ovalbumin, 2.5 nM hSMOX, 30 µM spermine, and 1.25% DMSO.
Dose-response curves were fit and compound IC50 values were determined using Genedata Screener (Genedata AG).

Another assay has as its target hPAOX (Homo sapiens (Human), UniProt Q6QHF9). Description: Human PAOX assay (HyPerBlu chemiluminescent detection of hydrogen peroxide). It counts as biochemical. The conditions noted are these: 60 pM recombinant PAOX, 20 μM N-acetylspermine substrate. How it is done: as §1
The hPAOX assay was run and the data analyzed similarly to the hSMOX assay described above, except the reactions contained 60 pM recombinant PAOX with an N-terminal His tag expressed from sf9 insect cells and used 20 μM N-acetylspermine as the substrate.

pIC50: −log10 of the molar value. A value given as a limit tells only on which side of the number the result lay.

Chain of SMOX (Q9NWM0 whole entry): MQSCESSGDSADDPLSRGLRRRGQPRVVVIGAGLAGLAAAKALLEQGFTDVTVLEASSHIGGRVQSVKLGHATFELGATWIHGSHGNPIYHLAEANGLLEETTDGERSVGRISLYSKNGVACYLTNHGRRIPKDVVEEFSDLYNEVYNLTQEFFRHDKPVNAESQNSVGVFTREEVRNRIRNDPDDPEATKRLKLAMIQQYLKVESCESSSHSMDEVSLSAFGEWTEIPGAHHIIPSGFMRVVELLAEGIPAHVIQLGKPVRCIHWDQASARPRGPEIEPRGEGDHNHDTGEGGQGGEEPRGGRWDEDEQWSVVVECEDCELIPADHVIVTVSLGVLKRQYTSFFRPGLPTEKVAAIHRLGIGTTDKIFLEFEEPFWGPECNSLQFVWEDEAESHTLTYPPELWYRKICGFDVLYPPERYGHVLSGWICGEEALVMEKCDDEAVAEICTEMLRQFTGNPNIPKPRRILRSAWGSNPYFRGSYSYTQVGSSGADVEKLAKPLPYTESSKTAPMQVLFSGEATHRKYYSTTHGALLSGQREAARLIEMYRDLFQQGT
Chain of hPAOX (Q6QHF9 whole entry): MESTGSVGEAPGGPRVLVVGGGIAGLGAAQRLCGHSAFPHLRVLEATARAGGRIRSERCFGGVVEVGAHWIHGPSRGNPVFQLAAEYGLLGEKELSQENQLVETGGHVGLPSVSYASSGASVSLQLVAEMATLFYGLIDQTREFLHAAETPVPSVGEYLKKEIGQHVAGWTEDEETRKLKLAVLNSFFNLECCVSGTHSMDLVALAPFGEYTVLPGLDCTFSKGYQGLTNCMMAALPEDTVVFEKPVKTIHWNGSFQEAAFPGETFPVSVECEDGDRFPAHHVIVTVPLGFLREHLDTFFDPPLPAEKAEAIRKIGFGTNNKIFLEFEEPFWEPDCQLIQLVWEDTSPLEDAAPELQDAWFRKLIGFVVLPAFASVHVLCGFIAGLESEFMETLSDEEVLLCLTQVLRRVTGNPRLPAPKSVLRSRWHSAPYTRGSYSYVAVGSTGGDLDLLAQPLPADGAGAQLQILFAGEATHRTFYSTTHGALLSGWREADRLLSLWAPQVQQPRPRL

With `CCN1CCC[C@H]1CNC(=O)c1cc2nc(-c3ccccc3)cc(-c3ccccc3)n2n1` [Example 14, (S)—N-((1-Ethylpyrrolidin-2-yl)methyl)-5,7-diphenylpyrazolo[1,5-a]pyrimidine-2-carboxamide], the pIC50 on SMOX was 6.40; at hPAOX, 5.61.
Taken in the same sequence, the figures for `O=C(NC1CCN(Cc2ccccc2)C1)c1cc2nc(-c3ccccc3)cc(-c3ccccc3)n2n1` (centres unmarked) [Example 16, N-(1-Benzylpyrrolidin-3-yl)-5,7-diphenylpyrazolo[1,5-a]pyrimidine-2-carboxamide] were 6.39 and 5.36.
Taken in the same sequence, the figures for `CN1CCC(NC(=O)c2cc3nc(-c4ccccc4)cc(-c4ccccc4)n3n2)CC1` [Example 17, N-(1-Methylpiperidin-4-yl)-5,7-diphenylpyrazolo[1,5-a]pyrimidine-2-carboxamide] were 6.22 and 4.98.
On the same counts, the results for `O=C(NCC1CCN(C2CC2)C1)c1cc2nc(-c3ccccc3)cc(-c3ccccc3)n2n1` (centres unmarked) [Example 22, N-((1-Cyclopropylpyrrolidin-3-yl)methyl)-5,7-diphenylpyrazolo[1,5-a]pyrimidine-2-carboxamide] are 6.16 and 6.27.
Turning to `CN1CCC(CNC(=O)c2cc3nc(-c4ccccc4)cc(-c4ccccc4)n3n2)CC1` [Example 24, N-((1-Methylpiperidin-4-yl)methyl)-5,7-diphenylpyrazolo[1,5-a]pyrimidine-2-carboxamide], the pIC50 at SMOX is 6.04; at hPAOX it was 5.71.
Taken in the same sequence, the figures for `O=C(NCCc1ncc[nH]1)c1cc2nc(-c3ccccc3)cc(-c3ccccc3)n2n1` [Example 25, N-(2-(1H-Imidazol-2-yl)ethyl)-5,7-diphenylpyrazolo[1,5-a]pyrimidine-2-carboxamide] were 6.60 and 7.46.
On the same counts, the results for `O=C(NCCCNc1ccccn1)c1cc2nc(-c3ccccc3)cc(-c3ccccc3)n2n1` [Example 26, 5,7-Diphenyl-N-(3-(pyridin-2-ylamino)propyl)pyrazolo[1,5-a]pyrimidine-2-carboxamide] are 6.49 and 7.66.
Regarding `O=C(NCCNc1ccccn1)c1cc2nc(-c3ccccc3)cc(-c3ccccc3)n2n1` [Example 28, 5,7-Diphenyl-N-(2-(pyridin-2-ylamino)ethyl)pyrazolo[1,5-a]pyrimidine-2-carboxamide], the pIC50 on SMOX is 6.81; on hPAOX it was 7.07.
Taken in the same sequence, the figures for `CN1CC(CNC(=O)c2cc3nc(-c4ccccc4)cc(-c4ccccc4)n3n2)C1` [Example 29, N-((1-Methylazetidin-3-yl)methyl)-5,7-diphenylpyrazolo[1,5-a]pyrimidine-2-carboxamide] were 6.32 and 5.76.
Turning to `O=C(NCCCCN1CCCC1)c1cc2nc(-c3ccccc3)cc(-c3ccccc3)n2n1` [Example 30, 5,7-Diphenyl-N-(4-(pyrrolidin-1-yl)butyl)pyrazolo[1,5-a]pyrimidine-2-carboxamide], the pIC50 at SMOX was 6.53; at hPAOX it was 6.89.
On the same counts, the results for `O=C(NCCCc1cccnc1)c1cc2nc(-c3ccccc3)cc(-c3ccccc3)n2n1` [Example 31, 5,7-Diphenyl-N-(3-(pyridin-3-yl)propyl)pyrazolo[1,5-a]pyrimidine-2-carboxamide] are 6.05 and 5.68.
On the same counts, the results for `CN(CCCNC(=O)c1cc2nc(-c3ccccc3)cc(-c3ccccc3)n2n1)c1ccccn1` [Example 32, N-(3-(Methyl(pyridin-2-yl)amino)propyl)-5,7-diphenylpyrazolo[1,5-a]pyrimidine-2-carboxamide] are 6.07 and 5.21.
For `CN(C)CC(C)(C)CNC(=O)c1cc2nc(-c3ccccc3)cc(-c3ccccc3)n2n1` [Example 33, N-(3-(Dimethylamino)-2,2-dimethylpropyl)-5,7-diphenylpyrazolo[1,5-a]pyrimidine-2-carboxamide], the values for the pIC50 on SMOX and on hPAOX were 6.50 and < 4.51, respectively.
Take `O=C(NCCc1c[nH]cn1)c1cc2nc(-c3ccccc3)cc(-c3ccccc3)n2n1` [Example 34, N-(2-(1H-Imidazol-4-yl)ethyl)-5,7-diphenylpyrazolo[1,5-a]pyrimidine-2-carboxamide]: the pIC50 was 6.58 on SMOX and 7.96 on hPAOX.
For the compound `O=C(NCCCN1CCC1)c1cc2nc(-c3ccccc3)cc(-c3ccccc3)n2n1` [Example 35, N-(3-(Azetidin-1-yl)propyl)-5,7-diphenylpyrazolo[1,5-a]pyrimidine-2-carboxamide], the pIC50 at SMOX was 6.28; on hPAOX, 6.44.
On the same counts, the results for `O=C(NCCN1CCC1)c1cc2nc(-c3ccccc3)cc(-c3ccccc3)n2n1` [Example 36, N-(2-(Azetidin-1-yl)ethyl)-5,7-diphenylpyrazolo[1,5-a]pyrimidine-2-carboxamide] are 6.44 and 6.00.
On the same counts, the results for `O=C(NC1CCCC(n2ccnc2)C1)c1cc2nc(-c3ccccc3)cc(-c3ccccc3)n2n1` (centres unmarked) [Example 37, N-(3-(1H-Imidazol-1-yl)cyclohexyl)-5,7-diphenylpyrazolo[1,5-a]pyrimidine-2-carboxamide] are 6.06 and 4.90.
Taken in the same sequence, the figures for `O=C(NCCc1ccncc1)c1cc2nc(-c3ccccc3)cc(-c3ccccc3)n2n1` [Example 38, 5,7-Diphenyl-N-(2-(pyridin-4-yl)ethyl)pyrazolo[1,5-a]pyrimidine-2-carboxamide] were 5.34 and 5.94.
As for `O=C(NCCc1ccccn1)c1cc2nc(-c3ccccc3)cc(-c3ccccc3)n2n1` [Example 39, 5,7-Diphenyl-N-(2-(pyridin-2-yl)ethyl)pyrazolo[1,5-a]pyrimidine-2-carboxamide], the pIC50 on SMOX is 5.56; at hPAOX, 5.85.
`O=C(NCCc1ccccc1)c1cc2nc(-c3ccccc3)cc(-c3ccccc3)n2n1` [Example 40, N-Phenethyl-5,7-diphenylpyrazolo[1,5-a]pyrimidine-2-carboxamide]: the pIC50 at SMOX and on hPAOX was < 4.51 throughout.
For the compound `O=C(NC1CCC1)c1cc2nc(-c3ccccc3)cc(-c3ccccc3)n2n1` [Example 41, N-Cyclobutyl-5,7-diphenylpyrazolo[1,5-a]pyrimidine-2-carboxamide], the pIC50 at SMOX and on hPAOX was < 4.51 each time.
As to `CN1CC(C)(NC(=O)c2cc3nc(-c4ccccc4)cc(-c4ccccc4)n3n2)C1` [Example 42, N-(1,3-Dimethylazetidin-3-yl)-5,7-diphenylpyrazolo[1,5-a]pyrimidine-2-carboxamide], the results for the pIC50 on SMOX and at hPAOX were 5.66 and 5.17, respectively.
For the compound `CN(C)CCN(C)C(=O)c1cc2nc(-c3ccccc3)cc(-c3ccccc3)n2n1` [Example 44, N-(2-(Dimethylamino)ethyl)-N-methyl-5,7-diphenylpyrazolo[1,5-a]pyrimidine-2-carboxamide], the pIC50 at SMOX is 5.13; on hPAOX it was < 4.51.
Taken in the same sequence, the figures for `CN1CC(N(C)C(=O)c2cc3nc(-c4ccccc4)cc(-c4ccccc4)n3n2)C1` [Example 45, N-Methyl-N-(1-methylazetidin-3-yl)-5,7-diphenylpyrazolo[1,5-a]pyrimidine-2-carboxamide] were 5.74 and 4.93.
On the same counts, the results for `CN1CC(NC(=O)c2nn3c(-c4ccccc4)cc(-c4ccccc4)nc3c2I)C1` [Example 46, 3-Iodo-N-(1-methylazetidin-3-yl)-5,7-diphenylpyrazolo[1,5-a]pyrimidine-2-carboxamide] are 7.48 and 5.27.
Taken in the same sequence, the figures for `CN1CCC(NC(=O)c2nn3c(-c4ccccc4)cc(-c4ccccc4)nc3c2I)C1` (centres unmarked) [Example 47, 3-Iodo-N-(1-methylpyrrolidin-3-yl)-5,7-diphenylpyrazolo[1,5-a]pyrimidine-2-carboxamide] were 6.90 and 4.69.
Turning to `CN1CCC(C)(CNC(=O)c2nn3c(-c4ccccc4)cc(-c4ccccc4)nc3c2I)C1` (centres unmarked) [Example 48, N-((1,3-Dimethylpyrrolidin-3-yl)methyl)-3-iodo-5,7-diphenylpyrazolo[1,5-a]pyrimidine-2-carboxamide], the pIC50 on SMOX is 6.16; on hPAOX, 5.12.
With `CN1CC(NC(=O)c2nn3c(-c4ccccc4)cc(-c4ccccc4)nc3c2Cl)C1` [Example 49, 3-Chloro-N-(1-methylazetidin-3-yl)-5,7-diphenylpyrazolo[1,5-a]pyrimidine-2-carboxamide], the pIC50 at SMOX is 6.97; at hPAOX it was 5.04.
